US20260248128A1, “INSECT NEUROPEPTIDE ANALOGUES” (Solasta Bio Limited, priority 2021, published 2026)
Where no end group is shown, it is not given here. [ ]: non-standard residue; d: D form. NMeA = CN[C@@H](C)C(=O)O; Ahx = NCCCCCC(=O)O

Experiments:
[1] = tested on: M. persicae (peach potato/Green Peach Aphid); assay: IRAC leaf dip assay on adult aphids; type: in vivo, Myzus persicae; conditions: for Peptide efficacy compared with endogenous CAPA-3: adult aphids and nymphs, scored 72, 96 and 120 hours
Method: Peptide efficacy (2×10^−4 M) was assessed on M. persicae (peach potato/Green Peach Aphid) using IRAC leaf dip assays on adult aphids. Peptides were administered on leaves either in DDH2O or Amino Acid Mix (Sadeghi et al., 2010) to increase uptake via feeding. Insecticide treatment was with Spirotetramat, 2×10^−4 M
Data are from 120 hours post-treatment, indicating % adult lethality (left panel); and number of nymphs per sample (right panel) for each of SB-P-1 (endogenous CAPA-3, N =26 (H2O); 15 (AA)), SB-P-14 (CAPA-3 analogue, N=5); SB-P-15 (CAPA-3 analogue, N=10). Peptide application rates are 2×10^−4 M. Note that nymph values for spirotetramat are 0.
Data are for 120 hours, indicating % adult lethality (left panel); and number of nymphs per sample (right panel). Individual data points are shown, N=5. Peptide application rates are 2×10^−4 M.

[2] = tested on: M. persicae CAPA receptor; assay: activation assay (IP1 assay) for M. persicae CAPA receptor; type: cell-based, Myzus persicae; conditions: initial screen, FIG. 7
[3] = tested on: H. halys CAPA receptor; conditions: data in Ahn et al, 2020; cited from earlier work
[4] = tested on: Pyrokinin receptor; conditions: Brown Marmorated Stinkbug, H. halys; Ahn et al., 2020; cited from earlier work
[5] = leaf dip, peptide 2×10^−4 M, 120 hours

## CCOC(=O)OC1=C(c2cc(C)ccc2C)C(=O)N[C@]12CC[C@@H](OC)CC2 [spirotetramat, Spirotetramat, reference compound]
[1]; 120 hours post-treatment, 2×10^−4 M
  number of nymphs per sample: 0

## Hy-SDSKNT[n-me-A]LWFGPRL-[nh2] [SB-P-15]
[2]
  activation of M. persicae CAPA receptor: do not activate
[1]; leaf dip, peptide 2×10^−4 M
  Peptide efficacy compared with endogenous CAPA-3: an improvement on endogenous CAPA-3 efficacy
[1]; [5]
  aphicidal efficacy (adult lethality): highly effective
  nymphicidal efficacy: highly effective

## H-SDSKNTALWFGPRL-NH2 [SB-P-1]
[2]
  activation of M. persicae CAPA receptor: do not activate
[3]
  activation of H. halys CAPA receptor: does not activate
[4]
  activation of Pyrokinin receptor: activate

## Hy-Ahx-SDSKNT[n-me-A]LWFGPRL-[NH2] ([Ahx]SDSKNT[NMeA]LWFGPRL-NH2; N-terminus assumed; SMILES CC(C)C[C@H](NC(=O)[C@H](CCCNC(=N)N)NC(=O)[C@@H]1CCCN1C(=O)CNC(=O)[C@H](Cc1ccccc1)NC(=O)[C@H](Cc1c[nH]c2ccccc12)NC(=O)[C@H](CC(C)C)NC(=O)[C@H](C)N(C)C(=O)[C@@H](NC(=O)[C@H](CC(N)=O)NC(=O)[C@H](CCCCN)NC(=O)[C@H](CO)NC(=O)[C@H](CC(=O)O)NC(=O)[C@H](CO)NC(=O)CCCCCN)[C@@H](C)O)C(N)=O) [SB-P-14]
[1]; leaf dip, peptide 2×10^−4 M
  Peptide efficacy compared with endogenous CAPA-3: did not perform as well as endogenous CAPA-3
